Source: PubChem BioAssay (NCI)
“And” between values parts separate entries of the source, which are not always exact repeats. Identical values can stand only once.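 Each compound was tested at five concentrations against cells in 96-well plates for 48 hours. GI50 is the concentration that inhibits growth by half. Definition used: TGI = concentration required for complete inhibition of growth.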

Key:
Assay in all cases: growth of human tumour cells (NCI), 48 h
786-0 renal = system: 786-0 renal
A498 renal = system: A498 renal
DU-145 prostate = system: DU-145 prostate
EKVX NSCLC = system: EKVX NSCLC
HOP-92 NSCLC = system: HOP-92 NSCLC
HS 578T breast = system: HS 578T breast
IGROV1 ovarian = system: IGROV1 ovarian
KM12 colon = system: KM12 colon
LOX IMVI melanoma = system: LOX IMVI melanoma
MCF7 breast = system: MCF7 breast
MDA-N = system: MDA-N
NCI-H226 lung = system: NCI-H226 lung
NCI-H23 lung = system: NCI-H23 lung
PC-3 prostate = system: PC-3 prostate
SF-539 CNS = system: SF-539 CNS
SNB-75 CNS = system: SNB-75 CNS
SW-620 colon = system: SW-620 colon
TK-10 renal = system: TK-10 renal
K-562 leukemia = system: K-562 leukemia

Row | Structure (SMILES) | TGI (786-0 renal) | TGI (A498 renal) | TGI (DU-145 prostate) | TGI (EKVX NSCLC) | TGI (HOP-92 NSCLC) | TGI (HS 578T breast) | TGI (IGROV1 ovarian) | TGI (KM12 colon) | TGI (LOX IMVI melanoma) | TGI (MCF7 breast) | TGI (MDA-N) | TGI (NCI-H226 lung) | TGI (NCI-H23 lung) | TGI (PC-3 prostate) | TGI (SF-539 CNS) | TGI (SNB-75 CNS) | TGI (SW-620 colon) | TGI (TK-10 renal) | TGI (K-562 leukemia) | GI50 (HS 578T breast) [µM]
1 | Brc1ccc(-c2nc(-c3ccc(Br)cc3)n(-c3ccccc3)n2)cc1 | > 100 µM | > 100 µM | > 100 µM | > 100 µM | > 100 µM | > 100 µM | > 100 µM | > 100 µM | > 100 µM | > 100 µM | > 100 µM | > 100 µM | > 100 µM | > 100 µM | > 100 µM | > 100 µM | > 100 µM | > 100 µM |  | 
2 | CC(C)=NNc1ncnc2nc[nH]c12 | > 100 µM | 54.2 µM | 67.8 µM | 98.2 µM | > 93.8 µM | 83.9 µM | > 100 µM | > 100 µM | > 100 µM | > 100 µM | > 100 µM | 97 µM | > 100 µM | > 100 µM | > 88.9 µM | > 79.6 µM | > 100 µM | > 100 µM | > 100 µM | 
3 | CCCCCC(/C=C/[C@@H]1[C@@H](C(O)CCCCCC(=O)OC)C(=O)C[C@H]1O[Si](C)(C)C(C)(C)C)OCOCCOC (stereo not given in full) | 31.6 µM | 42.7 µM | 36.9 µM | 37.6 µM | 46.2 µM | 27.2 µM | 20.9 µM | 16.1 µM | 14.5 µM | > 47 µM | 24.4 µM | 34.9 µM | 32.3 µM | 27.4 µM | 31 µM | 22.2 µM | 29.3 µM | 31.3 µM | > 52 µM | 
4 | O=c1[nH]nc(Cc2ccccc2)n1C1CC1 | > 100 µM | > 100 µM | > 100 µM | > 100 µM | > 100 µM | > 100 µM | > 100 µM | > 100 µM | > 100 µM | > 100 µM | > 100 µM | > 100 µM | > 100 µM | > 100 µM | > 100 µM | > 100 µM | > 100 µM | > 100 µM | > 100 µM | 
5 | C=C1C(=O)O[C@@H]2[C@H]1C[C@H](I)[C@@]1(C)CC[C@H](O1)[C@](C)(I)CCCC(C)[C@@H]2O (stereo not given in full) | 2.84 µM | 28.1 µM | 13.6 µM | 22.9 µM | 3.52 µM | 40.1 µM | 5.68 µM | 23.7 µM | 2.59 µM | 7.29 µM | 9.57 µM | 3.85 µM | 20.5 µM | 24.6 µM | 4.25 µM | 21.3 µM | 3.51 µM | 3.57 µM | > 42.1 µM | 
6 | O=C([O-])C1([n+]2c(-c3ccccc3)cc(-c3ccccc3)cc2-c2ccccc2)CC1 | > 100 µM | > 100 µM | > 100 µM | > 100 µM | > 100 µM | > 100 µM | > 100 µM |  | > 100 µM | > 100 µM | > 100 µM | > 100 µM | > 100 µM | > 100 µM | > 100 µM | > 100 µM | > 100 µM | > 100 µM | > 100 µM | 
7 | C=C(Cl)C(Cl)(CBr)CCC(Br)C(C)(C)Cl (stereo not given) | 0.9 µM and 1.03 µM and 3.78 µM | 4.03 µM and 4.02 µM and 6.05 µM | 3.86 µM and 3.1 µM and 7.05 µM | 7.36 µM and 4.19 µM and 12.8 µM | 3.5 µM and 2.72 µM and 4.84 µM | 5.25 µM and 5.08 µM and 9.16 µM | 27.2 µM and 26.9 µM and 53.1 µM | 3.57 µM and 2.83 µM and 6.38 µM | 12.4 µM and 29.7 µM and 33.6 µM | 2.83 µM and 2.09 µM and 8.1 µM | 8.91 µM and 3.02 µM and 21.6 µM | 38.4 µM and 32.5 µM and 37.9 µM | 40.7 µM and 33.8 µM and > 70.2 µM | 2.42 µM and 2.17 µM and 3.02 µM | 1.12 µM and 2.69 µM and 3.68 µM | 7.12 µM and 1.69 µM and 6.97 µM | 6.08 µM and 4.35 µM and 27.7 µM | 3.64 µM and 3.87 µM and 7.61 µM | 24.4 µM and 10.8 µM and > 92.9 µM | 0.802
8 | Nc1ncc(Sc2ccccc2C(=O)O)s1 | > 100 µM | > 100 µM | > 100 µM | > 100 µM | > 100 µM | > 100 µM | > 100 µM | > 100 µM | > 100 µM | > 100 µM | > 100 µM | > 100 µM | > 100 µM | > 100 µM | > 100 µM | > 100 µM | > 100 µM | > 100 µM | > 100 µM | 
9 | O=S(=O)(O)c1ccc2c(N=Nc3c(O)ccc4ccccc34)cccc2c1 | > 100 µM | > 100 µM | > 100 µM | > 100 µM | > 100 µM | > 100 µM | > 100 µM | > 100 µM | > 100 µM | > 100 µM | > 100 µM | > 100 µM | > 100 µM | > 100 µM | > 100 µM | > 100 µM | > 100 µM | > 100 µM | 98.1 µM | 
10 | CC1=NNC(=O)[C@H]2[C@H]1CCC1[C@@H]2CC[C@]2(C)[C@@H](O)CC[C@@H]12 (stereo not given in full) | > 100 µM | > 100 µM | > 100 µM | > 100 µM | > 100 µM | > 100 µM | > 100 µM | > 100 µM | > 100 µM | > 100 µM | > 100 µM | > 100 µM | > 100 µM | > 100 µM | > 100 µM | > 100 µM | > 100 µM | > 100 µM | > 100 µM | 
11 | O=C(/C=C/c1ccc(Cl)cc1)c1ccc(Cl)s1 | 90.9 µM | > 100 µM | > 100 µM | > 100 µM | > 100 µM | > 100 µM | > 100 µM | > 100 µM | 26.2 µM | 44.6 µM | 90.2 µM |  | > 100 µM | > 100 µM | > 100 µM | > 100 µM | 55 µM | > 100 µM | > 100 µM | 
12 | CC(C)CCCC(C)[C@H]1CCC2[C@@H]3CCC4Cc5nc6c(nc5C[C@]4(C)C3CC[C@@]21C)CC1CC[C@@H]2C(CC[C@@]3(C)C2CC[C@@H]3O)[C@@]1(C)C6 (stereo not given in full) | > 100 µM | > 100 µM | > 100 µM | > 100 µM | > 100 µM | > 100 µM | > 100 µM | > 100 µM | > 100 µM | > 100 µM | > 100 µM | > 100 µM | > 100 µM | > 100 µM | > 100 µM | > 100 µM | > 100 µM | > 100 µM | > 100 µM | 
13 | O=C1NC2=NN=C(c3ccc(Br)cc3)CN2NC12c1ccccc1-c1ccccc12 | > 100 µM | > 100 µM | > 100 µM | > 100 µM | > 100 µM | > 100 µM | > 100 µM |  | > 100 µM | > 100 µM | > 100 µM | > 100 µM | > 100 µM | > 100 µM | > 100 µM | > 100 µM | > 100 µM | > 100 µM | > 100 µM | 
14 | CCCCOc1ccc(S(=O)(=O)/N=C(\N)Nc2ccc(Cl)cc2)cc1 | 30.9 µM | 24.6 µM | 34.3 µM | 23.2 µM | 23.7 µM | 40.2 µM | 28.9 µM | 39.6 µM | 32.8 µM | 26.9 µM | 30.4 µM | 44.4 µM | 29.9 µM | 31 µM | 54.9 µM | 36.3 µM | 32.3 µM | 28.1 µM | 37.4 µM | 
15 | COc1cccc(N2C(=O)C3CC(CC(C)(C)C)c4c([nH]c5ccccc45)C3C2=O)c1 (stereo not given) | > 10 µM | > 10 µM | > 10 µM | > 10 µM | > 10 µM | 9.87 µM | > 10 µM | > 10 µM | > 10 µM | > 10 µM | > 10 µM | > 10 µM | > 10 µM | > 10 µM | 8.42 µM | 7.04 µM | > 10 µM | > 10 µM | > 10 µM | 
16 | COC(=O)c1ccccc1/C=C1\Cc2ccc3ccccc3c2C1C (stereo not given) | > 100 µM | > 100 µM | > 100 µM | > 100 µM | > 100 µM | > 100 µM | > 100 µM | > 100 µM | > 100 µM | > 100 µM | > 100 µM | > 100 µM |  | > 100 µM | > 100 µM | > 100 µM | > 100 µM | > 100 µM | > 100 µM | 
17 | CC(=O)O[C@H]1C[C@H]2[C@@H]([C@H](OC(C)=O)C[C@@H]3CC4(CC[C@@]32C)OOC2(CCCCC2)OO4)[C@@H]2CC[C@H]([C@H](C)CCC(=O)O)[C@@]12C | 24 µM | 27.1 µM | 31.6 µM | 4.76 µM | 7.1 µM | 9.32 µM | 3.9 µM | 17.1 µM | 15.8 µM | 22.1 µM | 26.9 µM | 31.6 µM | 16.6 µM | 22.2 µM | 20.3 µM | 14.8 µM | 30 µM | 27 µM | 23.7 µM | 
18 | Clc1cccc2[nH]ncc12 | > 100 µM | > 100 µM | > 100 µM | 95.4 µM | > 100 µM | > 100 µM | > 100 µM | > 100 µM | > 100 µM | > 100 µM | > 100 µM | > 100 µM |  | > 100 µM | > 100 µM | > 100 µM | > 100 µM | > 100 µM | > 100 µM | 
19 | CC(=O)Oc1ccc2cc(Oc3ccccc3)c(=O)oc2c1 | > 100 µM | > 100 µM | > 100 µM | > 100 µM | > 100 µM | > 100 µM | > 100 µM | > 100 µM | > 100 µM | > 100 µM | > 100 µM | > 100 µM | > 100 µM | > 100 µM | > 100 µM | > 100 µM | > 100 µM | > 100 µM |  | 
